Experimental findings from patent US8211931B2, “Active compound combinations having insecticidal and acaricidal properties” (Bayer Cropscience AG, priority 2006, dated 2012) are described below.

What all share (type): in vivo
The subject of one experiment is Bemisia tabaci. As to the kind of experiment: Bemisia tabaci test (cotton leaves sprayed, mirid bugs added). The settings on record: 0.16 ppm, active compound alone. On the procedure: (§1) To produce a suitable preparation of active compound, 1 part by weight of active compound is mixed with the stated amounts of solvent and emulsifier, and the concentrate is diluted with emulsifier-containing water to the desired concentration.
Cotton leaves (Gossypium hirsutum) infested by the whitefly (Bemisia tabacii) are treated by being sprayed with the preparation of active compound at the desired concentration.
After the desired period of time, a defined amount of mirid bugs (Macrolophus caliginosus) is added.
After the desired period of time, the kill of the pest in % is determined. 100% means that all whiteflies have been killed; 0% means that none of the whiteflies have been killed. The determined kill rates are entered into Colby's formula.

Another experiment deals with Myzus persicae. In words: Myzus persicae test (cabbage leaves sprayed, ladybird larvae added). The settings on record: 4 ppm, active compound alone. On the procedure:
as §1
Cabbage leaves (Brassica oleracea) infested by the green peach aphid (Myzus persicae) are treated by being sprayed with the preparation of active compound at the desired concentration.
After the desired period of time, a defined amount of ladybird larvae (Coccinella septempunctata) is added.
After the desired period of time, the kill of the pest in % is determined. 100% means that all aphids have been killed; 0% means that none of the aphids have been killed.
The determined kill rates are entered into Colby's formula.

The test system of the next experiment is Eriosoma lanigerum. In words: Field test on apple trees against woolly apple aphids, kill according to Abbott. As to the method: In three replications, in each case three about 25-year old apple trees (crown height about 2 m) of the cultivar “Elan” are treated against woolly apple aphids, Eriosoma lanigerum. Here, the active compound (I-4′) (150 OD) and the commercial standard clothianidin (WG 50) are tested comparatively at the stated application rates in the presence of the woolly aphid parasite (beneficial species) Aphelinus mali. The application is carried out using an atomizer at a water application rate of 500 l/ha. Both one and two applications at an interval of 34 days are carried out.
Evaluation is carried out 7, 30, 44, 52, 59, 66 and 73 days after the first treatment by evaluating the kill of the adult pests and the number of parasitic pests in each case 10 colonies according to Abbott.

Another experiment relates to Psylla pyri. In words: Field test on pear trees against pear psyllids, kill of L-1 and L-4 nymphs. As to conditions: for Activity (% Abbott) Psylla piri L-1: L-1 nymphs; for Activity (% Abbott) Psylla piri L-4: L-4 nymphs. As to the method:
In 4 replications, pear trees of the cultivar “Conference” of a height of about 3 m are treated against pear psyllids, Psylla pyri. Here, the active compound (I-4′) (100 OD) and the commercial standard Amitraz (UL 400) are applied at the stated application rates. The application is carried out using a knapsack sprayer and an application rate of 1000 l of water/ha. The beneficial species Anthocoris nemoralis appears 14 days after the treatment.
Evaluation is carried out 4, 8 and 14 days after the treatment by evaluating the kill of the L-1 nymphs and the L-4 nymphs on the branches.

The mark [1] stands for this setting: 8 d, 75 g/ha/m crown height, 100 OD.
Setting [2] is: 14 d, 75 g/ha/m crown height, 100 OD.
[3] abbreviates: 8 d, 400 g/ha/m crown height, UL 400.
Setting [4] is: 14 d, 400 g/ha/m crown height, UL 400.

For the compound `CCOC(=O)OC1=C(c2cc(C)ccc2C)C(=O)N[C@]12CC[C@@H](OC)CC2` [Ex. I-4′], in the experiment with Bemisia tabaci, the “Kill in % after 14 d” value turned out to be 0%. The “Kill in % after 7 d” value in the experiment on Myzus persicae came out at 10%. The “Activity (% Abbott) Eriosoma lanigerum” value in the experiment on Eriosoma lanigerum (7 d, 75 g/ha/m crown height, 150 OD, one treatment, apple trees, Aphelinus mali present) amounted to 48 % Abbott; in the experiment with Eriosoma lanigerum (30 d, 75 g/ha/m crown height, 150 OD, one treatment), 95 % Abbott; with Eriosoma lanigerum (44 d, 75 g/ha/m crown height, 150 OD, one treatment), 99 % Abbott; in the experiment with Eriosoma lanigerum (52 d, 75 g/ha/m crown height, 150 OD, one treatment), 99.4 % Abbott; in the experiment on Eriosoma lanigerum (59 d, 75 g/ha/m crown height, 150 OD, one treatment), 98.2 % Abbott; in the experiment on Eriosoma lanigerum (66 d, 75 g/ha/m crown height, 150 OD, one treatment), 98 % Abbott. Besides, the “Activity (% Abbott) Eriosoma lanigerum” value in the experiment on Eriosoma lanigerum (73 d, 75 g/ha/m crown height, 150 OD, one treatment) was found to be 98 % Abbott. In addition, in the experiment with Eriosoma lanigerum (after two treatments), the “Activity against Eriosoma lanigerum” value stood at 100%. Also, the “Activity (% Abbott) Psylla piri L-1” value in the experiment with Psylla pyri (4 d, 75 g/ha/m crown height, 100 OD, pear trees) was 62.7 % Abbott; in the experiment on Psylla pyri (setting [1]), 69.5 % Abbott; in the experiment with Psylla pyri (setting [2]) it was 76.6 % Abbott. Besides, the “Activity (% Abbott) Psylla piri L-4” value in the experiment with Psylla pyri (4 d, 75 g/ha/m crown height, 100 OD) is given as 91.4 % Abbott; with Psylla pyri (setting [1]) it was 98.4 % Abbott; in the experiment with Psylla pyri (setting [2]), 99.3 % Abbott.
In the case of `CN/C(=N\[N+](=O)[O-])NCc1cnc(Cl)s1` [Clothianidin, clothianidin, reference compound], the “Activity (% Abbott) Eriosoma lanigerum” value is on record as 71 % Abbott with Eriosoma lanigerum (7 d, 37.5 g/ha/m crown height, WG 50, two treatments, apple trees, Aphelinus mali present); 76 % Abbott with Eriosoma lanigerum (30 d, 37.5 g/ha/m crown height, WG 50, two treatments); 85 % Abbott in the experiment with Eriosoma lanigerum (44 d, 37.5 g/ha/m crown height, WG 50, two treatments); 81.8 % Abbott in the experiment on Eriosoma lanigerum (52 d, 37.5 g/ha/m crown height, WG 50, two treatments); 81.8 % Abbott with Eriosoma lanigerum (59 d, 37.5 g/ha/m crown height, WG 50, two treatments); 80 % Abbott in the experiment with Eriosoma lanigerum (66 d, 37.5 g/ha/m crown height, WG 50, two treatments). Also, the “Activity (% Abbott) Eriosoma lanigerum” value in the experiment on Eriosoma lanigerum (73 d, 37.5 g/ha/m crown height, WG 50, two treatments) is recorded as 80 % Abbott.
For the compound `Cc1ccc(/N=C/N(C)/C=N/c2ccc(C)cc2C)c(C)c1` [Amitraz, reference compound], the “Activity (% Abbott) Psylla piri L-1” value with Psylla pyri (4 d, 400 g/ha/m crown height, UL 400, pear trees) amounted to 23.6 % Abbott; with Psylla pyri (setting [3]), 41.0 % Abbott; in the experiment on Psylla pyri (setting [4]), 41.8 % Abbott. For the same compound, the “Activity (% Abbott) Psylla piri L-4” value was found to be 0.0 % Abbott in the experiment with Psylla pyri (4 d, 400 g/ha/m crown height, UL 400); 44.6 % Abbott in the experiment on Psylla pyri (setting [3]); 44.4 % Abbott in the experiment on Psylla pyri (setting [4]).
